In the experiment the test system is MV4-11 cells. Kind of experiment: Inhibition of MV4-11 cell proliferation (CellTiterGlo, 72 h). It is filed as cell-based. Conditions: Homo sapiens; 72 h growth inhibition. Put shortly:
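MV4-11 (FLT3-ITD) cells, 10,000/well in RPMI/10% FBS with 1 ng/ml GM-CSF, treated 72 h at 37 °C; some runs in 1:1 medium/human plasma. Growth read as ATP luminescence; 100% inhibition = Day 0 RLU, 0% = DMSO at Day 3. IC50 from sigmoidal variable-slope fit of triplicates.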
(In general: ATP-based viability assays read luminescence as a measure of living cells.)

The term IC50 denotes the point on the concentration scale where inhibition reaches its midpoint. Read a high IC50 as weaker potency in that assay.

For the compound `COc1cc2ncc(C#N)c(N3CCC(NC(=O)Nc4ccc(C(C)C)cc4)C3)c2cc1OC` (centres unmarked) [Compound 26, 1-[1-(3-Cyano-6,7-dimethoxy-quinolin-4-yl)-pyrrolidin-3-yl]-3-(4-isopropyl-phenyl)-urea], it took 1900 nM to reach half-maximal inhibition (IC50).
Compound `COc1cc2ncnc(N3CCC(N(C)C(=O)Nc4ccc(OC(C)C)cc4)C3)c2cc1OC` (centres unmarked) [Compound 36, 1-[1-(6,7-Dimethoxy-quinazolin-4-yl)-pyrrolidin-3-yl]-3-(4-isopropoxy-phenyl)-1-methyl-urea] showed an IC50 of 3190 nM.
In the case of `COc1cc2ncnc(N3CCC(CNC(=O)Nc4ccc(C(C)C)cc4)CC3)c2cc1OC` [Compound 18, 1-[1-(6,7-Dimethoxy-quinazolin-4-yl)-piperidin-4-ylmethyl]-3-(4-isopropyl-phenyl)-urea] it was 1300 nM; in that of `COc1cc2ncnc(N3CCC(OC(=O)Nc4ccc(OC5CCC5)nc4)C3)c2cc1OC` (centres unmarked) [Compound 12, (6-Cyclobutoxy-pyridin-3-yl)-carbamic acid 1-(6,7-dimethoxy-quinazolin-4-yl)-pyrrolidin-3-yl ester], 64 nM; in that of `CCN(CC)CC#Cc1ccc2ncnc(N3CCC(OC(=O)Nc4ccc(C(C)C)cc4)C3)c2c1` (centres unmarked) [Compound 17, (4-Isopropyl-phenyl)-3-carbamic acid 1-[6-(3-diethylamino-prop-1-ynyl)-quinazolin-4-yl]-pyrrolidin-3-yl ester], 122 nM.
Then `COc1cc2ncnc(N3CCCC(OC(=O)Nc4ccc(C(C)C)cc4)C3)c2cc1OC` (centres unmarked) [Compound 31, (4-Isopropyl-phenyl)-carbamic acid 1-[1-(6,7-dimethoxy-quinazolin-4-yl)-piperidin-3-yl]ester], with 1700 nM; and `CC(C)c1ccc(NC(=O)NC2CCN(c3ncnc4ccccc34)C2)cc1` (centres unmarked) [Compound 16, 1-(4-Isopropyl-phenyl)-3-(1-quinazolin-4-yl-pyrrolidin-3-yl)urea], with 278 nM; and `COc1cc2ncnc(N3CCC(NC(=O)Nc4ccc(OC(C)C)cc4)C3)c2cc1OC` (centres unmarked) [Compound 8, 1-[1-(6,7-Dimethoxy-quinazolin-4-yl)-pyrrolidin-3-yl]-3-(4-isopropoxy-phenyl)-urea], with 1880 nM.
Then `COc1cc2ncc(C#N)c(N3CCC(NC(=O)Nc4ccc(OC(C)C)cc4)C3)c2cc1OC` (centres unmarked) [Compound 29, 1-[1-(3-Cyano-6,7-dimethoxy-quinolin-4-yl)-pyrrolidin-3-yl]-3-(4-isopropoxy-phenyl)-urea], with 1700 nM; and `COc1cc2ncnc(N3CCC(C(=O)Nc4ccc(C(C)C)cc4)CC3)c2cc1OC` [Compound 13, 1-(6,7-Dimethoxy-quinazolin-4-yl)-piperidine-4-carboxylic acid (4-isopropyl-phenyl)-amide], with 855 nM.
In the case of `COc1cc2ncnc(N3CCCC(COC(=O)Nc4ccc(C(C)C)cc4)C3)c2cc1OC` (centres unmarked) [Compound 4], the half-inhibitory concentration (IC50) turned out to be 86 nM.
Compound `COc1cc2ncc(C#N)c(N3CCC(OC(=O)Nc4ccc(OC(C)C)cc4)C3)c2cc1OC` (centres unmarked) [Compound 32, (4-Isopropoxy-phenyl)-carbamic acid 1-(3-cyano-6,7-dimethoxy-quinolin-4-yl)-pyrrolidin-3-yl ester] gave an IC50 of 1400 nM.
Then `COc1cc2ncnc(N3CCC(OC(=O)Nc4ccc(C(C)C)cc4)C3)c2cc1OC` (centres unmarked) [Compound 2, (4-Isopropyl-phenyl)-carbamic acid 1-(6,7-dimethoxy-quinazolin-4-yl)-pyrrolidin-3-yl ester], with 248 nM.
In the case of `COc1cc2ncnc(N3CCC(NC(=O)Nc4ccc(C(C)C)cc4)C3)c2cc1OC` (centres unmarked) [Compound 7, 1-[1-(6,7-Dimethoxy-quinazolin-4-yl)-pyrrolidin-3-yl]-3-(4-isopropyl-phenyl)-urea] it was 909 nM; in that of `COc1cc2ncnc(N3CCC(OC(=O)Nc4ccc(C(C)C)cc4)CC3)c2cc1OC` [Compound 1, (4-Isopropyl-phenyl)-carbamic acid 1-(6,7-dimethoxy-quinazolin-4-yl)-piperidin-4-yl ester], 181 nM.
For the compound `COc1cc2ncnc(N3CCCC(NC(=O)Nc4ccc(C(C)C)cc4)C3)c2cc1OC` (centres unmarked) [Compound 28, 1-[1-(6,7-Dimethoxy-quinazolin-4-yl)-piperidin-3-yl]-3-(4-isopropyl-phenyl)-urea], half-maximal inhibition (IC50) required 1500 nM.
In the case of `CC(C)c1ccc(NC(=O)OC2CCN(c3ncnc4ccc(C#CCO)cc34)C2)cc1` (centres unmarked) [Compound 14, (4-Isopropyl-phenyl)-carbamic acid 1-[6-(3-hydroxy-prop-1-ynyl)-quinazolin-4-yl]-pyrrolidin-3-yl ester] it was 136 nM.
Turning to `COc1cc2ncnc(N3CCC(CC(=O)Nc4ccc(C(C)C)cc4)CC3)c2cc1OC` [Compound 5, 2-[1-(6,7-Dimethoxy-quinazolin-4-yl)-piperidin-4-yl]-N-(4-isopropyl-phenyl)-acetamide], the half-inhibitory concentration (IC50) is 7 nM.
Then `COc1cc2ncc(C#N)c(N3CCC(OC(=O)Nc4ccc(C(C)C)cc4)C3)c2cc1OC` (centres unmarked) [Compound 37, (4-Isopropyl-phenyl)-carbamic acid 1-(3-cyano-6,7-dimethoxy-quinolin-4-yl)-pyrrolidin-3-yl ester], with 1500 nM; and `COc1cc2ncnc(N3CCC(NC(=O)Cc4ccc(C(C)C)cc4)C3)c2cc1OC` (centres unmarked) [Compound 35, N-[1-(6,7-Dimethoxy-quinazolin-4-yl)-pyrrolidin-3-yl]-2-(4-isopropyl-phenyl)-acetamide], with 1900 nM; and `COc1cc2ncnc(N3CCCCC3COC(=O)Nc3ccc(C(C)C)cc3)c2cc1OC` (centres unmarked) [Compound 33, (4-Isopropyl-phenyl)-carbamic acid 1-(6,7-dimethoxy-quinazolin-4-yl)-piperidin-2-ylmethyl ester], with 343 nM.
Then `COc1cc2ncnc(N3CCCC3COC(=O)Nc3ccc(C(C)C)cc3)c2cc1OC` (centres unmarked) [Compound 9], with 196 nM.
In the case of `COc1cc2ncnc(N3CCC(C(=O)Nc4ccc(OC(C)C)cc4)CC3)c2cc1OC` [Compound 23, 1-(6,7-Dimethoxy-quinazolin-4-yl)-piperidine-4-carboxylic acid (4-isopropoxy-phenyl)-amide] it was 1980 nM.
Consider `COc1cc2ncnc(N3CCC(CC(=O)Nc4ccc(C(C)C)cc4)C3)c2cc1OC` (centres unmarked) [Compound 6, 2-[11-(6,7-Dimethoxy-quinazolin-4-yl)-pyrrolidin-3-yl]-N-(4-isopropyl-phenyl)-acetamide], for which the half-maximal inhibitory concentration (IC50) was determined as 8 nM.
Turning to `COc1cc2ncnc(N3CCC(OC(=O)Nc4ccc(OC(C)C)cc4)CC3)c2cc1OC` [Compound 3, (4-Isopropoxy-phenyl)-carbamic acid 1-(6,7-dimethoxy-quinazolin-4-yl)-piperidin-4-yl ester], the IC50 turned out to be 467 nM.
Then `COc1cc2ncnc(N3CCC(N(C)C(=O)Nc4ccc(C(C)C)cc4)C3)c2cc1OC` (centres unmarked) [Compound 19, 1-[1-(6,7-Dimethoxy-quinazolin-4-yl)-pyrrolidin-3-yl]-3-(4-isopropyl-phenyl)-1-methyl-urea], with 1380 nM; and `COc1cc2ncnc(N3CCC(NC(=O)Cc4ccc(C(C)C)cc4)CC3)c2cc1OC` [Compound 21, N-[1-(6,7-Dimethoxy-quinazolin-4-yl)-piperidin-4-yl]-2-(4-isopropyl-phenyl)-acetamide], with 78 nM.
On to `COc1cc2ncnc(N3CCC(OC(=O)Nc4ccc(OC(C)C)cc4)C3)c2cc1OC` (centres unmarked) [Compound 15, (4-Isopropoxy-phenyl)-carbamic acid 1-(6,7-dimethoxy-quinazolin-4-yl)-pyrrolidin-3-yl ester], for which the IC50 stood at 866 nM.
`CC(C)c1ccc(NC(=O)OC2CCN(c3ncnc4ccc(I)cc34)C2)cc1` (centres unmarked) [Compound 20, (4-Isopropyl-phenyl)-carbamic acid 1-(6-iodo-quinazolin-4-yl)-pyrrolidin-3-yl ester]: the 50% inhibitory concentration (IC50) turned out to be 262 nM.
